Source: ChEMBL document CHEMBL4622970, “Design, Synthesis, and Evaluation of New Quinazolinone Derivatives that Inhibit Bloom Syndrome Protein (BLM) Helicase, Trigger DNA Damage at the Telomere Region, and Synergize with PARP Inhibitors” (J Med Chem, 2020)
Activity calls are given as the source filed them. The calls are words filed in the database; no cut-off is given here.

Columns and labels:
[1] = target: T1, RecQ-like DNA helicase BLM (Homo sapiens, UniProt P54132); experiment: (§1) Inhibition of His-tagged BLM (642 to 1296 residues) (unknown origin) expressed in Escherichia coli BL21 (DE3) cells assessed as reduction in DNA unwinding activity at <10 uM using 5'-biotin-labeled forked DNA as substrate preincubated for 1 hr followed by substrate addition and measured after 1 hr by electrophoretic mobility shift assay
[2] = target: T1, RecQ-like DNA helicase BLM; experiment: as §1, with “activity” for “activity at <10 uM”
[3] = target: T1, RecQ-like DNA helicase BLM; experiment: Binding affinity to His-tagged BLM (642 to 1296 residues) (unknown origin) expressed in Escherichia coli BL21 (DE3) cells assessed as inhibition of protein interaction with 5'-biotin-labeled forked DNA measured after 1 hr by ELISA
[4] = target: T1, RecQ-like DNA helicase BLM; experiment: Inhibition of BLM in human HCT116 cells assessed as increase in gamma-H2AX level at 2 uM measured after 24 hrs by Western blot analysis; assay type: cell-based; conditions: HCT-116
[5] = target: T1, RecQ-like DNA helicase BLM; experiment: Inhibition of BLM in human HCT116 cells assessed as down regulation of HRR level at 0.5 uM measured after 24 hrs by luciferase reporter gene assay; assay type: cell-based; conditions: HCT-116
[6] = tested on: HCT-116; experiment: Cytotoxicity against human HCT116 cells by MTT assay; assay type: functional, cell-based
[7] = target: T1, RecQ-like DNA helicase BLM; experiment: Binding affinity to BLM in human HCT116 cells cotransfected with DSB model and I-SceI plasmid assessed as reduction in recruitment of protein to DNA region distant from DSB site at 1 uM measured after 24 hrs by chromatin immunoprecipitation assay; assay type: cell-based; conditions: HCT-116
[8] = tested on: RecQ-like DNA helicase BLM (Homo sapiens), P54132 [I1168A]; experiment: Binding affinity to His-tagged BLM I1168A mutant (unknown origin) expressed in Escherichia coli BL21 (DE3) cells by isothermal calorimetric titration assay
[9] = target: T1, RecQ-like DNA helicase BLM; experiment: Binding affinity to BLM in human HCT116 cells cotransfected with DSB model and I-SceI plasmid assessed as reduction in recruitment of protein to DSB site in DNA at 1 uM measured after 24 hrs by chromatin immunoprecipitation assay; assay type: cell-based; conditions: HCT-116
[10] = target: T1, RecQ-like DNA helicase BLM; experiment: Inhibition of BLM in human HCT116 cells assessed as potentiation of olaparib-induced cytotoxicity at 1 to 2 uM measured after 48 hrs by MTT assay; assay type: cell-based; conditions: HCT-116
[11] = target: T1, RecQ-like DNA helicase BLM; experiment: Binding affinity to wild-type His-tagged BLM (642 to 1296 residues) (unknown origin) expressed in Escherichia coli BL21 (DE3) cells by isothermal calorimetric titration assay
[12] = tested on: RecQ-like DNA helicase BLM (Homo sapiens), P54132 [H996A]; experiment: Binding affinity to His-tagged BLM H996A mutant (unknown origin) expressed in Escherichia coli BL21 (DE3) cells by isothermal calorimetric titration assay
[13] = target: T1, RecQ-like DNA helicase BLM; experiment: Inhibition of BLM in human HCT116 cells assessed as potentiation of niraparib-induced cytotoxicity at 1 to 2 uM measured after 48 hrs by MTT assay; assay type: cell-based; conditions: HCT-116

T1 sequence (P54132 whole entry, the tested form may be a part): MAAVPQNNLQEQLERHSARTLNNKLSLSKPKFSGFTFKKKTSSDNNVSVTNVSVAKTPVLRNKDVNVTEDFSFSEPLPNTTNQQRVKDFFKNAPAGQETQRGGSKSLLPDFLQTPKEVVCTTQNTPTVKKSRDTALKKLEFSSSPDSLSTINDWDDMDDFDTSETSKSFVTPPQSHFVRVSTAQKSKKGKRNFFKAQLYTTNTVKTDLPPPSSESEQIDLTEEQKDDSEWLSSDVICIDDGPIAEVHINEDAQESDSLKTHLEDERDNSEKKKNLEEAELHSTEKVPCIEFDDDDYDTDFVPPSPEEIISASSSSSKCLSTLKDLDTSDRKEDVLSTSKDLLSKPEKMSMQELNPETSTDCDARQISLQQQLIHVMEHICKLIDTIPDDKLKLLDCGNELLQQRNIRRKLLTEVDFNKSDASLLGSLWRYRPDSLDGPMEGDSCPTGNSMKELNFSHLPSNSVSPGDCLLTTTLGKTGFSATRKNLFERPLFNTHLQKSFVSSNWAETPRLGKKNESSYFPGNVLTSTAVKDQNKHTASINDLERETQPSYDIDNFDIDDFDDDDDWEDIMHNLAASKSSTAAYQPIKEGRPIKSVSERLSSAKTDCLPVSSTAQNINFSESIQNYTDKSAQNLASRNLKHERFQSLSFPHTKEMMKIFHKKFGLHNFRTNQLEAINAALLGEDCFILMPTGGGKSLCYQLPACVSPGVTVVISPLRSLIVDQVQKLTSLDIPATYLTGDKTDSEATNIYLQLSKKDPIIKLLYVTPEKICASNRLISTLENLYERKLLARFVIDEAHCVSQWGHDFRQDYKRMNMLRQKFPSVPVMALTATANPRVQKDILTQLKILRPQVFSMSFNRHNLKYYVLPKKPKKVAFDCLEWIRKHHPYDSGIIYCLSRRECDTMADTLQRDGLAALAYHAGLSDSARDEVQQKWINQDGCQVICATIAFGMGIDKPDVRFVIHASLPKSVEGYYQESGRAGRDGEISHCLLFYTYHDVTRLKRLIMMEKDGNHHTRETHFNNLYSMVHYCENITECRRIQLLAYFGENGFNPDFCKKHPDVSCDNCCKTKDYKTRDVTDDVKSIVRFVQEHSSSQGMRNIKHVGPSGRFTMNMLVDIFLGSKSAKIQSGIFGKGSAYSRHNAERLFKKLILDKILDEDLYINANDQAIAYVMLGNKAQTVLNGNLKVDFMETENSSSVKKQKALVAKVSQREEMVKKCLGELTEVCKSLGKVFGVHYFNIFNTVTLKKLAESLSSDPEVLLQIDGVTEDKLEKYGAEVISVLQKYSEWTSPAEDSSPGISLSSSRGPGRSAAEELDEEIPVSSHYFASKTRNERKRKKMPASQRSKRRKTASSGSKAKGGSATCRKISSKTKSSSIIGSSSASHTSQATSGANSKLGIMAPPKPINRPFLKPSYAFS
Sequence of RecQ-like DNA helicase BLM (Homo sapiens), P54132 [H996A] (P54132 whole entry H996A): as the sequence (P54132 whole entry, the tested form may be a part) above, with H996A counted along it
Sequence of RecQ-like DNA helicase BLM (Homo sapiens), P54132 [I1168A] (P54132 whole entry I1168A): as the sequence (P54132 whole entry, the tested form may be a part) above, with I1168A counted along it

With `CC(C)CCNc1cc2nc3n(c(=O)c2cc1F)CC/C3=C\c1ccc(C(C)C)cc1` the “Inhibition (active/not active)” value [1] was “inactive”.
With `CCN(CC)CCCCNc1cc2nc3n(c(=O)c2cc1F)CC/C3=C\c1ccc(C(C)C)cc1` the IC50 [2] was 1.8 µM.
`CCN(CC)CCCNc1c2c(nc3ccccc13)/C(=C/c1ccc(C(C)(C)C)cc1)CC2` was tested, and the “Inhibition (active/not active)” value [1] was “inactive”.
`CCOCCNc1cc2nc3n(c(=O)c2cc1F)CC/C3=C\c1ccc(C(C)C)cc1` was tested, and the “Inhibition (active/not active)” value [1] was “Active” and the IC50 [2] was over 10 µM.
For `CCN(CC)CCNc1cc2nc3n(c(=O)c2cc1F)CC/C3=C\c1ccc(N(CC)CC)cc1O`, the IC50 [3] was over 20 µM, the IC50 [2] was 2.1 µM and the inhibition [4] was “inactive”. The inhibition [5] was “Active” and the Activity [6] was “Active”.
`CCN(CC)CCNc1cc2nc3n(c(=O)c2cc1F)CCC3Cc1ccc(C(C)C)cc1` (centres undefined) was tested, and the “Inhibition (active/not active)” value [1] was “Active” and the IC50 [2] was over 10 µM.
With `CCN(CC)CCCNc1c2c(nc3ccccc13)/C(=C/c1ccc(C(C)C)cc1)CC2` the IC50 [2] was 8.7 µM.
In the case of `CCN(CC)CCNc1cc2nc3n(c(=O)c2cc1F)CC/C3=C\c1ccccc1`, the “Inhibition (active/not active)” value [1] is reported as “inactive”.
`CCN(CC)CCCNc1cc2nc(/C=C/c3ccc(CC(C)C)cc3)[nH]c(=O)c2cc1F` gave an IC50 [2] of 4.7 µM.
In the case of `CCN(CC)CCNc1cc2nc3n(c(=O)c2cc1F)CC/C3=C\c1ccc(C(C)C)cc1`, the IC50 [2] is reported as 2 µM, the inhibition [4] is reported as “Active” and the inhibition [5] is reported as “Active”. For the same compound, the Activity [6] was “Active”.
`CCN(CC)CCNc1cc2nc3n(c(=O)c2cc1F)CC/C3=C\c1ccc(C(C)C)cc1O` was tested, and the IC50 [2] was 4 µM.
For `CCN(CC)CCNc1cc2nc3n(c(=O)c2cc1F)CCC3Cc1ccc(C(C)C)cc1O` (centres undefined), the “Inhibition (active/not active)” value [1] was “Active” and the IC50 [2] was over 10 µM.
For `CCN(CC)CCCNc1cc2nc3n(c(=O)c2cc1F)CC/C3=C\c1ccc(C(C)C)cc1O`, the IC50 [2] was 4.2 µM.
`CCc1ccc(/C=C2\CCn3c2nc2cc(NCCN(CC)CC)c(F)cc2c3=O)cc1` gave an IC50 [2] of 3.2 µM.
With `CCN(CC)CCNc1cc2nc3n(c(=O)c2cc1F)CC/C3=C\c1ccc(OC)cc1` the “Inhibition (active/not active)” value [1] was “inactive”.
`CCN(CC)CCCNc1cc2nc3n(c(=O)c2cc1F)CC/C3=C\c1ccccc1` was tested, and the “Inhibition (active/not active)” value [1] was “inactive”.
Work on `CCN(CC)CCNc1ccc2c(=O)n3c(nc2c1)/C(=C/c1ccc(C(C)C)cc1)CC3` yielded an IC50 [2] of 1.3 µM.
With `CCN(CC)CCNc1cc2nc3n(c(=O)c2cc1F)CC/C3=C\c1ccc(O)cc1O` the “Inhibition (active/not active)” value [1] was “Active” and the IC50 [2] was over 10 µM.
For `CC(=O)NCCNc1cc2nc3n(c(=O)c2cc1F)CC/C3=C\c1ccc(C(C)C)cc1`, the “Inhibition (active/not active)” value [1] was “Active” and the IC50 [2] was over 10 µM.
In the case of `CCN(CC)CCNc1cc2nc(/C=C/c3ccc(C(C)C)cc3)n(C)c(=O)c2cc1F`, the IC50 [2] is reported as 2.2 µM, the inhibition [4] is reported as “inactive” and the inhibition [5] is reported as “Active”. For the same compound, the Activity [6] was “Active”.
In the case of `CCN(CC)CCCNc1cc2nc(/C=C/c3ccc(C(C)C)cc3)n(CC)c(=O)c2cc1F`, the IC50 [2] is reported as 2.8 µM.
In the case of `CCN(CC)CCNc1cc2nc3c(cc2cc1F)CC/C3=C\c1ccc(C(C)C)cc1`, the “Inhibition (active/not active)” value [1] is reported as “Active” and the IC50 [2] is reported as over 10 µM.
`CCN(CC)CCNc1cc2nc3n(c(=O)c2cc1F)CC/C3=C\c1ccc(CC(C)C)cc1` gave an IC50 [2] of 3.1 µM.
For `CCN(CC)CCNc1cc2nc3n(c(=O)c2cc1F)CC/C3=C\c1ccc(C(C)(C)C)cc1`, the IC50 [2] was 2.7 µM, the inhibition [4] was “Active” and the inhibition [5] was “Active”. For the same compound, the Activity [6] was “Active”.
Compound `CCN(CC)CCCNc1cc2nc(/C=C/c3ccc(C(C)C)cc3)n(CC(C)C)c(=O)c2cc1F` has an IC50 [2] of 3.6 µM.
In the case of `CC(C)c1ccc(/C=C2\CCc3c2nc2ccccc2c3NCCCN(C)C)cc1`, the “Inhibition (active/not active)” value [1] is reported as “Active” and the IC50 [2] is reported as over 10 µM.
With `CCN(CC)CCNc1cc2nc3n(c(=O)c2cc1F)CCC3Cc1ccc(N(C)C)cc1` (centres undefined) the “Inhibition (active/not active)” value [1] was “Active” and the IC50 [2] was over 10 µM.
For `CCNc1cc2nc(/C=C/c3ccc(C(C)C)cc3)n(CC)c(=O)c2cc1F`, the “Inhibition (active/not active)” value [1] was “inactive”.
With `CCc1ccc(/C=C2\CCc3c2nc2ccccc2c3NCCCN(CC)CC)cc1` the “Inhibition (active/not active)” value [1] was “Active” and the IC50 [2] was over 10 µM.
In the case of `CCN(CC)CCCNc1c2c(nc3ccccc13)/C(=C/c1ccc(CC(C)C)cc1)CC2`, the “Inhibition (active/not active)” value [1] is reported as “Active” and the IC50 [2] is reported as over 10 µM.
With `CCN(CC)CCNc1cc2nc3n(c(=O)c2cc1F)CCC/C3=C\c1ccc(C(C)C)cc1` the “Inhibition (active/not active)” value [1] was “Active” and the IC50 [2] was over 10 µM.
For `CCN(CC)CCCNc1cc2nc3n(c(=O)c2cc1F)CC/C3=C\c1ccc(C(C)C)cc1`, the IC50 [2] was 1.5 µM, the Activity [7] was “Active” and the inhibition [5] was “Active”. For the same compound, the Activity [8] was “Active”, the Activity [9] was “Active” and the inhibition [10] was “Active”. For the same compound, the Activity [11] was “Active”, the Activity [12] was “Active” and the inhibition [13] was “Active”.
In the case of `CCN(CC)CCNc1cc2nc3n(c(=O)c2cc1F)CC/C3=C\c1ccc(N(C)C)cc1O`, the IC50 [2] is reported as 6.4 µM.
For `CCN(CC)CCNc1cc2nc3n(c(=O)c2cc1F)CCC3Cc1ccc(C(C)(C)C)cc1` (centres undefined), the “Inhibition (active/not active)” value [1] was “Active” and the IC50 [2] was over 10 µM.
Compound `CCCc1ccc(/C=C2\CCn3c2nc2cc(NCCN(CC)CC)c(F)cc2c3=O)cc1` has an IC50 [2] of 3.3 µM.
With `CCN(CC)CCNc1cc2nc3n(c(=O)c2cc1F)CC/C3=C\c1cccs1` the “Inhibition (active/not active)” value [1] was “inactive”.
`CCN(CC)CCCNc1cc2nc(/C=C/c3ccc(C(C)C)cc3)[nH]c(=O)c2cc1F` was tested, and the “Inhibition (active/not active)” value [1] was “Active” and the IC50 [2] was over 10 µM.
In the case of `CCN(CC)CCNc1cc2nc3n(c(=O)c2cc1F)CCC3Cc1ccc(N(CC)CC)cc1O` (centres undefined), the “Inhibition (active/not active)” value [1] is reported as “inactive”.
With `CCN(CC)CCNc1cc2nc3n(c(=O)c2cc1F)CC/C3=C\c1ccc(O)c(O)c1` the “Inhibition (active/not active)” value [1] was “Active” and the IC50 [2] was over 10 µM.
For `CCN(CC)CCNc1cc2nc3n(c(=O)c2cc1F)CCC3Cc1ccc(CC(C)C)cc1` (centres undefined), the “Inhibition (active/not active)” value [1] was “Active” and the IC50 [2] was over 10 µM.
For `CC(C)c1ccc(/C=C2\CCn3c2nc2cc(NCCN(C)C)c(F)cc2c3=O)cc1`, the IC50 [3] was over 20 µM, the IC50 [2] was 2.8 µM and the inhibition [4] was “inactive”. For the same compound, the inhibition [5] was “Active” and the Activity [6] was “Active”.
For `CCN(CC)CCCNc1cc2nc(/C=C/c3ccc(C(C)C)cc3)n(C)c(=O)c2cc1F`, the IC50 [2] was 4.7 µM.
In the case of `CCN(CC)CCNc1cc2nc3n(c(=O)c2cc1F)CC/C3=C\c1ccc(N(C)C)cc1`, the “Inhibition (active/not active)” value [1] is reported as “Active” and the IC50 [2] is reported as over 10 µM.
